Among the data in ChEMBL document CHEMBL3044909, “Design, synthesis, and evaluation of an activity-based probe for cellular imaging of monoamine oxidases” (Med Chem Res, 2012) are IC50 values, retold here.

Assay [1] addresses T1, Amine oxidase [flavin-containing] A (Homo sapiens, UniProt P21397).
T1 sequence (P21397 whole entry): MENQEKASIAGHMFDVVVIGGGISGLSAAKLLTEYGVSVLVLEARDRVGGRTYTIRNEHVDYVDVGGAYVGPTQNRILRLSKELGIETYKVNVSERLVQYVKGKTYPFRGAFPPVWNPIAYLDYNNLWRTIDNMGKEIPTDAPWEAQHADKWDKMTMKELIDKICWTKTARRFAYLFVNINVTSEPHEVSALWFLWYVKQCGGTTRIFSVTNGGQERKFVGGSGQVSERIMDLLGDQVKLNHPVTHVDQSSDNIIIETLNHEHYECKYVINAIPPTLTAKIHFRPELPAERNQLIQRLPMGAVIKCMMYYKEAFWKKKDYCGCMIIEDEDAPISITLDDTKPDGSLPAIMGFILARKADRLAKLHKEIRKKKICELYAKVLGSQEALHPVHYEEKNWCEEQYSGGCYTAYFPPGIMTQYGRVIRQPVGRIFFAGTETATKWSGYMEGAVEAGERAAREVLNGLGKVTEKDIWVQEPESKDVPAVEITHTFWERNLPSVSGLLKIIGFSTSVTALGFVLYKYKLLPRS
Nature of the assay: Binding affinity to MAOA (unknown origin) using 7-(3-amino-propoxy)-coumarin as substrate after 3 hr by spectrofluorometric analysis.

In assay [2] the target is T2, Amine oxidase [flavin-containing] B (Homo sapiens, UniProt P27338).
T2 sequence (P27338 whole entry): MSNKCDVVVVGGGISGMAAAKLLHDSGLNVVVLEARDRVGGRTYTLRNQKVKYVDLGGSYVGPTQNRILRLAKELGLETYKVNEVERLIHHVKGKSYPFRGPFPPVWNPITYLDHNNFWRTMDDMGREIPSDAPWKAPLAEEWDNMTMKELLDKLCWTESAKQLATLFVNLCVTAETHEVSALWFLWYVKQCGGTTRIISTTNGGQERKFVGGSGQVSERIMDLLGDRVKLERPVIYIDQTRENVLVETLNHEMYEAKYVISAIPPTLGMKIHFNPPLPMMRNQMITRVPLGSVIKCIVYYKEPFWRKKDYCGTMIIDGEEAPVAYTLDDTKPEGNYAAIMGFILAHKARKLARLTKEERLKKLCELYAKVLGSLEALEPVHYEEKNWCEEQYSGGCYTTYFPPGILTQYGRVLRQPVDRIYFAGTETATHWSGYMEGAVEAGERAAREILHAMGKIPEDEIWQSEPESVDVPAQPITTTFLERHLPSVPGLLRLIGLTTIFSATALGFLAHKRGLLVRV
Nature of the assay: Binding affinity to MAOB (unknown origin) using 7-(3-amino-propoxy)-coumarin as substrate after 3 hr by spectrofluorometric analysis.

The term IC50 denotes the concentration needed to halve the response being measured. The low end stands for greater potency, the high end for weaker potency. Regarding `NCCCCCCNCC(N)=O`, the IC50 is 8.6 µM in assay [1] and 79.5 µM in assay [2].
For the molecule `CC(C)(C)OC(=O)NCCCCCCNCC(N)=O`, the IC50 amounted to 5.7 µM in assay [1] and 54.3 µM in assay [2].
